Data on one compound can be found in publication PMC7996098, “High-Level Extracellular Expression of a New β-N-Acetylglucosaminidase in Escherichia coli for Producing GlcNAc” (Frontiers in Microbiology, 2021).

The target of this assay is T1, BlNagZ (Bacillus licheniformis, UniProt Q65P58).
T1 construct: gene ybbD; pET26b, PelB signal peptide (excised on secretion) fused to ORF amplified from its start codon; His-tag purified; E. coli BL21(DE3) supernatant
The assay is described as follows: p-nitrophenol release, absorbance […] nm. Type of assay: biochemical. The conditions noted are these: substrate of the Km not given, taken from the standard assay; pH 5.5, 60 °C (standard assay), 50 mM phosphate; read-out: Km (μ mol/L).

T1 sequence (Q65P58 entry or part of it): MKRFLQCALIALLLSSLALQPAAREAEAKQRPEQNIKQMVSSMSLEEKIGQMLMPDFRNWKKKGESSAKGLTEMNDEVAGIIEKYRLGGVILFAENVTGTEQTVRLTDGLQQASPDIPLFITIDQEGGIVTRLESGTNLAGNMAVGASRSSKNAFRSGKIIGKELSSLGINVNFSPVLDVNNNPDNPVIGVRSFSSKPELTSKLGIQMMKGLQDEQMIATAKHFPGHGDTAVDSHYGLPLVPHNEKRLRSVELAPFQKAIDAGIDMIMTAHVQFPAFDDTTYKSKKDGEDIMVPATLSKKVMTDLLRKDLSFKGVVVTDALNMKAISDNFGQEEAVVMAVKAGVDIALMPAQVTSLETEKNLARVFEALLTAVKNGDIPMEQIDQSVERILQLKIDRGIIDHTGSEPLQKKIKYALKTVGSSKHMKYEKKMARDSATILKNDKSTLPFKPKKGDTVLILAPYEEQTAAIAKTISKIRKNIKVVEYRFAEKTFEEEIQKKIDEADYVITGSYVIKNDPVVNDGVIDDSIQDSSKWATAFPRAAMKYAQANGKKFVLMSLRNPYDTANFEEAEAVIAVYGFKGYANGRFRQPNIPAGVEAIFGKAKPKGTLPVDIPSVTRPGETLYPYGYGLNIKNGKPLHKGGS

For `CC(=O)N[C@H]1[C@H](Oc2ccc([N+](=O)[O-])cc2)O[C@H](CO)[C@@H](O)[C@@H]1O` [pNP-β-D-GlcNAc], the Km came out at 0.000932 mol/L.
